Drawing on ChEMBL document CHEMBL1149016, “Plant anticancer agents, XLII. Cytotoxic constituents from Wikstroemia elliptica” (1986), this text covers EC50 for five compounds.

In brackets after ≈: the same amount, converted by molar mass.

The experiment relates to P388. Nature of the experiment: Cytotoxicity against mouse P388 cells. The format is functional. The settings on record: read-out: ED50 (the source's name).
For `COc1cc(C[C@@H]2CO[C@@H](c3cc(OC)c(O)c(OC)c3)[C@@H]2CO)ccc1O` (racemic), the EC50 worked out at 0.33 µg/mL (≈ 0.845 µM).

In the case of `COc1cc(C[C@H]2CO[C@H](c3ccc(O)c(OC)c3)[C@H]2CO)ccc1O` (racemic) [LARICIRESINOL], the EC50 amounted to 0.38 µg/mL (≈ 1.05 µM).

For the compound `COc1cc([C@H]2OC[C@H]3[C@@H]2CO[C@@H]3c2cc(OC)c(O)c(OC)c2)cc(OC)c1O` (racemic) [SYRINGARESINOL], the EC50 was 0.56 µg/mL (≈ 1.34 µM).

For the compound `COc1cc2cc(Oc3ccc4ccc(=O)oc4c3)c(=O)oc2cc1O` [DAPHNORETIN], the EC50 is 3.4 µg/mL (≈ 9.65 µM).

As to `O=c1ccc2ccc(O)cc2o1` [UMBELLIFERONE], the EC50 stood at 3.1 µg/mL (≈ 19.1 µM).
